Results: the RepoRT retention time repository (doi:10.1021/acs.analchem.2c02893)

Assay: RP, Thermo Scientific Acclaim RSLC 120 C18, 100 × 2.1 mm, 2.2 µm, 30 °C, 0.2 mL/min, estimated dead time 1.1 min; A: 90% water + 10% methanol + 0.01% formic acid + 5 mM ammonium formate, pH 3.61; B: methanol + 0.01% formic acid + 5 mM ammonium formate, pH 3.61; gradient (min/%B) 0/1 1/1 2/39 13/99.9 15/99.9 15.1/1 20.1/1
Conditions: stereoisomer not certain

Structure (SMILES)	LC retention time
NC12CC3CC(CC(C3)C1)C2 [Amantadine]	4.86 min
CNC(=O)C(C)SCCSP(=O)(OC)OC (centres undefined) [Vamidothion]	5.02 min
OC(c1ccccc1)(c1ccccc1)C1CCNCC1 [Azacyclonol]	6.19 min
CCCOP(=O)(OCCC)Oc1ccc(SC)cc1 [Propaphos]	10.8 min
CNC(=O)Oc1cc(C)c(N(C)C)c(C)c1 [Mexacarbate]	9.3 min
CC1COC(Cn2cncn2)(c2ccc(Oc3ccc(Cl)cc3)cc2Cl)O1 (centres undefined) [Difenoconazole]	11.6 min
O=C(NCc1ccccc1)c1cn(CCCCCF)c2ccccc12 [SDB-006-5F]	10 min
C=CC(=O)NC(C)(C)CS(=O)(=O)O [2-Acrylamido-2-methylpropane sulfonic acid (AMPS)]	2.8 min
CCOP(=S)(OCC)SCCSCC [Disulfoton]	11.5 min
C[Si](Cn1cncn1)(c1ccc(F)cc1)c1ccc(F)cc1 [Flusilazole]	10.5 min
COP(=S)(OC)Oc1ccc([N+](=O)[O-])cc1 [Parathion-methyl]	9.24 min
CCC(=O)OC(Cc1ccccc1)(c1ccccc1)C(C)CN(C)C (centres undefined) [Dextropropoxyphene]	7.73 min
O=C(NC(=O)c1c(F)cccc1F)Nc1cc(Cl)c(OC(F)(F)C(F)F)c(Cl)c1 [Hexaflumuron]	11.8 min
CCCCCn1cc(C(=O)c2ccccc2OC)c2ccccc21 [RCS-4-ortho]	11.2 min
CC1(C)CCC(=Cc2ccc(Cl)cc2)C1(O)Cn1cncn1 (centres undefined) [Triticonazole]	10.1 min
O=P1(NCCCl)OCCCN1CCCl (centres undefined) [Ifosfamid]	5.89 min

Structure (SMILES)	LC retention time
CC(N)Cc1cccc(F)c1 (centres undefined) [Amphetamine (3-F-)]	4.39 min
CCC(=O)OCC(=O)C1(OC(=O)CC)C(C)CC2C3CCC4=CC(=O)C=CC4(C)C3(F)C(O)CC21C (centres undefined) [Betamethasone dipropionate]	11.3 min
Cc1nnc(-c2ccccc2)c(=O)n1N [Metamitron]	5.24 min
CC(C)C(O)(C(=O)OCC1=CCN2CCC(O)C12)C(C)O (centres undefined) [Lycopsamine]	3.65 min
C=C1CC2C(CCC3(C)C(=O)CCC23)C2(C)C=CC(=O)C=C12 (centres undefined) [Exemestane]	9.03 min
CCCc1nn(C)c2c(=O)[nH]c(-c3cc(C(=O)CN4CCN(CCO)CC4)ccc3OCC)nc12 [Acetildenafil-Hydroxy]	6.94 min
CCCCCCn1cc(C(=O)c2cccc3ccccc23)cc1-c1ccccc1 [JWH-147]	13.3 min
CN1C(=O)C(O)N=C(c2ccccc2)c2cc(Cl)ccc21 (centres undefined) [Temazepam]	7.94 min
O=C(c1cccc(F)c1)N1CCC(N2CCN(c3ccccc3)CC2)CC1 [CC-2201]	11.3 min
CCCCCCCCCCCCCC[N+](C)(C)Cc1ccccc1 [Benzyldimethyltetradecylammonium]	12.2 min
CC(NC(=O)C(N)CC(=O)O)C(=O)NC1C(C)(C)SC1(C)C (centres undefined) [Alitame]	6.09 min
CC(C)Nc1nc(N)nc(Cl)n1 [Atrazine-desethyl]	5.73 min
CCOC1Oc2ccc(OS(C)(=O)=O)cc2C1(C)C (centres undefined) [Ethofumesate]	9.14 min
COC(=O)NC(=S)Nc1ccccc1NC(=S)NC(=O)OC [Thiophanate-methyl]	6.93 min
c1cc2c(c(NC3=NCCN3)c1)CCC2 [Indanazoline]	4.76 min

Further lines, results first:

LC retention time	Structure (SMILES)
10.3 min	CCCc1nc2c(C)cc(-c3nc4ccccc4n3C)cc2n1Cc1ccc(-c2ccccc2C(=O)O)cc1 [Telmisartan]
10.6 min	CCc1cccc2c3c([nH]c12)C(CC)(CC(=O)O)OCC3 (centres undefined) [Etodolac]
9.26 min	CN(C)CCCn1c2c(c3ccccc31)CCCCCC2 [Iprindol]
1.36 min	NC(=O)c1ncn(C2OC(CO)C(O)C2O)n1 (centres undefined) [Ribavirin]
7.69 min	CN(C)CCCN1c2ccccc2Sc2ccccc21 [Promazine]
11.7 min	CCOC(=O)COC(=O)c1cc(Oc2ccc(C(F)(F)F)cc2Cl)ccc1[N+](=O)[O-] [Fluoroglycofen-ethyl]
4.54 min	CN1CC2CC1CN2c1cc2c(cc1F)c(=O)c(C(=O)O)cn2C1CC1 (centres undefined) [Danofloxacin]
4.76 min	NC(=O)c1ccccc1O [Salicylamide]
6.67 min	Cc1cccc(Nc2ccncc2S(=O)(=O)NC(=O)NC(C)C)c1 [Torasemide]
3.83 min	Clc1cccc(Cl)c1NC1=NCCN1 [Clonidine]
7.7 min	O=c1c(-c2ccc(O)cc2)coc2cc(O)cc(O)c12 [Genistein]
9.46 min	C#CC1(O)CCC2C3CCc4cc(O)ccc4C3CCC21C (centres undefined) [EE2 - Ethinyl estradiol]
2.94 min	CCN1CCCC1CNC(=O)c1cc(S(N)(=O)=O)ccc1OC (centres undefined) [Sulpiride]
4.98 min	Cc1nccn1CC1CCc2c(c3ccccc3n2C)C1=O (centres undefined) [Ondansetron]
8.47 min	CN(C)C(=O)NC1CCCCCCC1 [Cycluron]
5.11 min	COc1ccccc1OCC(O)CO (centres undefined) [Guaifenesin]
8.38 min	CN1CCN(CCC=C2c3ccccc3Sc3ccc(S(=O)(=O)N(C)C)cc32)CC1 [Thiothixene]

LC retention time	Structure (SMILES)
7.08 min	CC(C(=O)O)c1ccc(CC(C)(C)O)cc1 (centres undefined) [Ibuprofen- 2-Hydroxy]
12.1 min	N#Cc1ccc(CC(=NNC(=O)Nc2ccc(OC(F)(F)F)cc2)c2cccc(C(F)(F)F)c2)cc1 [Metaflumizone]
12.5 min	CCOCCc1ccc(OCCNc2ncnc(CC)c2Cl)c(C)c1C [Pyrimidifen]
1.93 min	CNCC(O)c1cccc(O)c1 (stereo not drawn) [Phenylephrine (broad peak)]
3.5 min	CCCOC(=O)NCCCN(C)C [Propamocarb]
10.1 min	C1=Cc2ccccc2Nc2ccccc21 [Iminostilbene]
11.1 min	CC#CC1(O)CCC2C3CCC4=CC(=O)CCC4=C3C(c3ccc(N(C)C)cc3)CC21C (centres undefined) [Mifepristone]
10.9 min	CCCc1nn(C)c2c(=O)[nH]c(-c3cc(S(=O)(=O)N4CCCCC4)ccc3OCC)nc12 [Sildenafil Norneo]
3.26 min	COc1nc(C)nc(Cl)c1NC1=NCCN1 [Moxonidine]
6.94 min	CCOC(=O)CC(O)(CC(=O)OCC)C(=O)OCC [Triethylcitrate]
7.88 min	CCCc1nn(C)c2c(=O)[nH]c(-c3cc(S(=O)(=O)N4CCN(C)CC4)ccc3OCC)nc12 [Sildenafil]
13.6 min	Oc1ccc2ccccc2c1N=Nc1ccccc1 [Sudan I]
3.28 min	c1ccc(CC2=NCCN2)cc1 [Tolazoline]
6.99 min	CC(Cc1ccc(C(C)C(=O)O)cc1)C(=O)O (centres undefined) [Ibuprofen-Carboxy]
4.03 min	NC(=O)c1cc[n+](CC2=C(C(=O)[O-])N3C(=O)C(NC(=O)Cc4cccs4)C3SC2)cc1 (centres undefined) [Cefalonium]
7.84 min	CC12C=CC(=O)C=C1CCC1C2C(O)CC2(C)C1CCC2(O)C(=O)CO (centres undefined) [Prednisolone]
